In patent publication US7122528B2, “Use of 5-substituted nucleosides and/or prodrugs thereof in the resistance-free treatment of infectious diseases” (RESPROTECT GmbH, priority 2001, dated 2006):
Read-outs that look alike come from different tables or passages of the source.

How the values were obtained:
[1] = tested on: E. coli J53 (RP4) strains; assay: Determination of minimal inhibitory concentrations (MIC) of Kanamycin or Amikacin on starter, adapted and BVDU-pretreated strains; assay type: cell-based, Escherichia coli; conditions: for MIC: Escherichia coli
From the text: In order to determine the minimal inhibitory concentrations (MIC), precultures were used initially for which antibiotic-free culture medium had been inoculated directly from frozen glycerine cultures. […] However even higher antibiotic concentrations still led to the growth of the inoculum. However, the growth inhibition prevented a larger cell density in the bacteria culture being reached.
In order to test the stability of the specific resistance features of the E. coli strains, the MIC determination was repeated. The already tested precultures were again absorbed for this purpose in antibiotic-free culture medium and tested for their Kanamycin resistance. The resistance spectra of the starter strain and of the strain adapted to 64 μg/ml remained unchanged. […] The results are illustrated in FIG. 4.
The results can be deduced from FIG. 6.
(§1) In order to determine the minimal inhibitory concentrations (MIC) of Kanamycin or Amikacin relative to aminoglycoside/BVDU-pretreated E coli J53 (RP4) strains, standard precultures were used which contained no additives in the culture medium (recovery phase). In addition, it was tested in comparative experiments to what extent the addition of BVDU to the antibiotic-free precultures changes the resistant spectrum of the strains.

[2] = tested on: Escherichia coli J53 (RP4); assay: Growth tests: adaptation (resistance development) to aminoglycoside antibiotic with or without BVDU; assay type: cell-based
From the text: Escherichia coli J53 was used as Gram-negative model organism in order to test the effectiveness of BVDU. This organism carries the naturally occurring plasmid RP4, on which resistances to Ampicillin, Tetracycline and Kanamycin are encoded.
The results are illustrated in FIGS. 1 and 2.

[3] = tested on: aminoglycoside/BVDU-pretreated E coli J53 (RP4) strains; assay: BVDU conditioned growth inhibition after aminoglycoside/BVDU pretreatment; assay type: cell-based, Escherichia coli
Procedure: as §1
In comparison therewith, the growth without antibiotic in the additive-free preculture corresponded to that of the untreated E. coli strain. The results are illustrated in FIGS. 7 and 8.

Leidshmania donovanii = assay: Prevention of methotrexate resistance development in Leishmania by gradual increase in MTX concentration; assay type: cell-based
Procedure: Prevention of resistance development in Zooflagellates (Leishmania) by the simultaneous administration of the anti-recombinogenic 5-substituted nucleoside (E)-5-(2-bromovinyl)2′-deoxyuridines (BVDU) with methotrexate.
Methotrexate (MTX) resistant cells of Leidshmania donovanii were produced by gradual increase in the MTX concentrations of 5 to 10, of 10 to 50 and of 50 to 100 μm MTX. 5×10^6 cells/ml respectively were seeded in the growth medium. The cells were diluted again to 5×10^6 cells/ml for each new batch. The cells were then constantly subjected to the next higher MTX concentration when the cell division rate of the MTX-subjected cells had stabilised to the control level. […] The result of this test can be seen in a simplified version in FIGS. 9 and 10.

[4] = 1 μg/ml BVDU added simultaneously with MTX

With `NCC[C@H](O)C(=O)N[C@@H]1C[C@H](N)[C@@H](O[C@H]2O[C@H](CN)[C@@H](O)[C@H](O)[C@H]2O)[C@H](O)[C@H]1O[C@H]1O[C@H](CO)[C@@H](O)[C@H](N)[C@H]1O` [Amikacin] the MIC ([1]; strain which had become resistant to 0.25 μg/ml Amikacin, read-out: MIC of Amikacin) was 2 µg/mL, the “Amikacin concentration from which growth inhibition was shown” value ([1]; strain grown in the presence of 2 μg/ml BVDU (no resistance to 0.25 μg/ml Amikacin)) was 0.125 µg/mL and the “increase of Amikacin MIC relative to the starter strain” value ([1]; strain which had become resistant to 0.25 μg/ml Amikacin) was “eight times increased”. The “adaptation, i.e. resistance development, to the antibiotic” value ([2]; Amikacin 0.25 μg/ml alone, E coli J53 (RP4)) was “slow adaptation, i.e. resistance development”.
With `O=c1[nH]c(=O)n([C@H]2C[C@H](O)[C@@H](CO)O2)cc1/C=C/Br` [BVDU, (E)-5-(2-bromovinyl)-2-deoxyuridines] the “growth of aminoglycoside/BVDU-pretreated E. coli strains in the absence of the antibiotic” value ([3]; BVDU 1 or 2 μg/ml in the preculture or/and 0.04–0.05 μg/ml in the MIC batches) was “sustained restriction of the growth”, the “effect of BVDU without pretreatment (antibiotic+BVDU)” value ([3]; no pretreatment) was “no effect” and the “toxicity of BVDU without pretreatment” value ([3]; no pretreatment) was “not toxic”. The “effect on resistance development/adaptation to Kanamycin” value ([2]; BVDU 1 μg/ml in presence of Kanamycin 64 μg/ml, E. coli J53 (RP4)) was “inhibition of this resistance development/adaptation”, the “effect on adaptation to Amikacin” value ([2]; BVDU 2 μg/ml in presence of Amikacin 0.25 μg/ml, E coli J53 (RP4)) was “inhibition of this adaptation” and the “cell division rate relative to control level” value (Leidshmania donovanii; [4]) was “never reached the control level”. For the same compound, the “resistance development to MTX treatment” value (Leidshmania donovanii; [4]) was “no resistance to the treatment”.
`NC[C@H]1O[C@H](O[C@H]2[C@H](O)[C@@H](O[C@H]3O[C@H](CO)[C@@H](O)[C@H](N)[C@H]3O)[C@H](N)C[C@@H]2N)[C@H](O)[C@@H](O)[C@@H]1O` [Kanamycin] was tested, and the MIC ([1]; strain pretreated with 64 μg/ml Kanamycin + 1 μg/ml BVDU, repeated MIC determination, read-out: Kanamycin concentration from which growth of the inoculum was completely prevented (MIC)) was 32 µg/mL, the MIC ([1]; strain which had become resistant to 64 μg/ml Kanamycin, read-out: MIC of Kanamycin) was 128 µg/mL and the “Kanamycin concentration from which growth inhibition was shown” value ([1]; strain grown in the presence of 1 μg/ml BVDU (no resistance to 64 μg/ml Kanamycin), first MIC determination) was 16 µg/mL.
For `CN(Cc1cnc2nc(N)nc(N)c2n1)c1ccc(C(=O)N[C@@H](CCC(=O)O)C(=O)O)cc1` [MTX, Methotrexate], the “passages until cell division rate stabilised to the control level” value (Leidshmania donovanii; MTX alone, steps 5 to 10, 10 to 50, 50 to 100 μm MTX) was “approximately three to four passages”.
